Results on 1 molecule are retold here after ChEMBL document CHEMBL3044777, “Weed control and sweet maize (Zea mays L.) yield as affected by pyroxasulfone dose” (2011).

Format in all cases: functional
Assay [1] relates to Amaranthus palmeri. In words: Herbicide activity against Amaranthus […] (Moq.) Sauer. assessed as weed control at 152 g/ha.
Assay [2] has as its system Amaranthus palmeri. In words: Herbicide activity against Amaranthus palmeri S.Watson assessed as weed control at 125 g/ha.
In assay [3] the test system is Digitaria sanguinalis. In words: Herbicide activity against Digitaria sanguinalis assessed as weed control at 31.25 g/ha.
Assay [4] has as its system Setaria viridis. Briefly: Herbicide activity against Setaria viridis (green foxtail) assessed as weed control measured after pre-emergence treatment in southwestern ontario.
For assay [5], the system named is Chenopodium album. Briefly: Herbicide activity against Chenopodium album assessed as weed control measured after pre-emergence treatment in southwestern ontario.
Assay [6] has as its system Amaranthus retroflexus. Briefly: Herbicide activity against Amaranthus retroflexus assessed as weed control measured after pre-emergence treatment in southwestern ontario.
Assay [7] deals with Amaranthus. In words: Herbicide activity against Amaranthus sp. assessed as weed control at 1000 g/ha.
Assay [8] deals with Abutilon theophrasti. In words: Herbicide activity against Abutilon theophrasti (velvetleaf) assessed as weed control at 31.25 g/ha.
Assay [9] relates to Echinochloa crus-galli. In words: Herbicide activity against Echinochloa crus-galli (barnyard grass) assessed as weed control at 31.25 g/ha.
Assay [10] relates to Digitaria. Briefly: Herbicide activity against Digitaria assessed as weed control at 274 g/ha in presence of 2% organic matter on soil.

As to `Cn1nc(C(F)(F)F)c(CS(=O)(=O)C2=NOC(C)(C)C2)c1OC(F)F` [PYROXASULFONE], the Activity is 90% in [1]; 95% in [2]; 90% in assay [3]; 90% in assay [7]; 90% in assay [8]; 90% in [9]. Besides, the Activity in assay [10] is 90%. Further, the results for the I90 in assay [4], in [5] and in assay [6] were 111 g/ha, 499 g/ha and 93 g/ha, respectively.
